{"source": "patent US20250262222A1", "about": "“HETEROCYCLIC COMPOUNDS, COMPOSITIONS THEREOF, AND METHODS OF TREATMENT THEREWITH” (BeiGene Switzerland GmbH, priority 2022, published 2025)"}
{"system": "pERK1/2(THR202/TYR204) level in AsPC-1 cell line", "test": "KRAS G12D pERK assay", "type": "cell-based", "settings": "AsPC-1 cells, 2 h compound treatment, HTRF", "procedure": "(§1) AsPC-1 cell line was used in this study. Cells were maintained in RPMI-1640 supplemented with 10% fetal bovine serum (Thermo Fisher), 50 units/mL penicillin and streptomycin (Thermo Fisher) and kept at 37° C. in a humidified atmosphere of 5% CO2 in air. Cells were reinstated from frozen stocks that were laid down within 30 passages from the original cells purchased. 30000 cells per well were seeded into a 96-well plate and incubated overnight. Cells were treated with a 10-point dilution series. The final compound concentration is from 0 to 10 μM. After 2 h compound treatment, cells were lysed, and the pERK1/2(THR202/TYR204) level in the cell lysates was detected by HTRF kit (Cisbio). In brief, a total of 16 μL of cell lysate from each well of a 96-well plate was transferred to a 384-well white assay plate. Lysate from each well was incubated with 2 μL of Eu3+-cryptate (donor) labeled anti-phospho-ERK1/2 and 2 μL of D2 (acceptor) labeled anti-phospho-ERK1/2 antibodies (Cisbio) overnight in dark at room temperature. When donor and acceptor are in close proximity, excitation of the donor with laser triggers a Fluorescence Resonance Energy Transfer (FRET) towards the acceptor, which in turn fluoresces at 655 nm wavelength. FRET signals were measured using a PHERAstar FSX reader (BMG Labtech). IC50 determination was performed by fitting the curve of percent inhibition versus the log of the inhibitor concentration using Dotmatics.", "units": {"IC50": "nM"}}
{"smiles": "Nc1cc(Cl)c(C(F)(F)F)c(-c2nc3c4c(nc(OC[C@@]56CCCN5C[C@H](F)C6)nc4c2F)N2C[C@H]4CC[C@H](N4)C2CCO3)c1", "note": "(single isomer, unassigned) [Example 24]", "IC50": 4.4}
{"system": "pERK1/2(THR202/TYR204) level in AsPC-1 cell line", "test": "KRAS G12D pERK assay", "type": "cell-based", "settings": "Homo sapiens, ASPC1, 2 h, AsPC-1 cells, 2 h compound treatment, HTRF", "procedure": "as §1", "units": {"IC50": "nM"}}
{"smiles": "Cc1cc(N)cc(-c2nc3c4c(nc(OCC56COC(C)(C5)C6)nc4c2F)N2C[C@H]4CC[C@H](N4)[C@H]2CCO3)c1C(F)(F)F", "note": "[Example 28, 3-((6aR,7S,10R)-1-fluoro-13-((1-methyl-2-oxabicyclo[2.1.1]hexan-4-yl)methoxy)-5,6,6a,7,8,9,10,11-octahydro-4-oxa-3,11a,12,14,15-pentaaza-7,10-methanocyclohepta[4,5]cyclo-octa[1,2,3-de]naphthalen-2-yl)-5-methyl-4-(trifluoromethyl)aniline]", "IC50": 152}
{"smiles": "Nc1cc(Cl)c(C(F)(F)F)c(-c2nc3c4c(nc(OCC56COC(C(F)(F)F)(C5)C6)nc4c2F)N2C[C@H]4CC[C@H](N4)[C@H]2CCO3)c1", "note": "[Example 53, 3-chloro-5-((6aR,7S,10R)-1-fluoro-13-((1-(trifluoromethyl)-2-oxabicyclo[2.1.1]hexan-4-yl)methoxy)-5,6,6a,7,8,9,10,11-octahydro-4-oxa-3,11a,12,14,15-pentaaza-7,10-methanocyclohepta[4,5]cyclo-octa[1,2,3-de]naphthalen-2-yl)-4-(trifluoromethyl)aniline]", "IC50": 211}
{"smiles": "C[C@](O)(COc1nc2c3c(nc(-c4cc(N)cc(Cl)c4C(F)(F)F)c(F)c3n1)OCC[C@@H]1[C@@H]3CC[C@H](CN21)N3)C(F)(F)F", "note": "[Example 44, (S)-3-(((6aR,7S,10R)-2-(5-amino-3-chloro-2-(trifluoromethyl)phenyl)-1-fluoro-5,6,6a,7,8,9,10,11-octahydro-4-oxa-3,11a,12,14,15-pentaaza-7,10-methanocyclohepta[4,5]cyclo-octa[1,2,3-de]naphthalen-13-yl)oxy)-1,1,1-trifluoro-2-methylpropan-2-ol]", "IC50": 2220}
{"smiles": "COCC1(COc2nc3c4c(nc(-c5cc(N)cc(Cl)c5C(F)(F)F)c(F)c4n2)OCC[C@@H]2[C@@H]4CC[C@H](CN32)N4)COC1", "note": "[Example 62, 3-chloro-5-((6aR,7S,10R)-1-fluoro-13-((3-(methoxymethyl)oxetan-3-yl)methoxy)-5,6,6a,7,8,9,10,11-octahydro-4-oxa-3,11a,12,14,15-pentaaza-7,10-methanocyclohepta[4,5]cyclo-octa[1,2,3-de]naphthalen-2-yl)-4-(trifluoromethyl)aniline]", "IC50": 346}
{"smiles": "Cc1cc(N)cc(-c2nc3c4c(nc(OCC56COC(CF)(C5)C6)nc4c2F)N2C[C@H]4CC[C@H](N4)[C@H]2CCO3)c1C(F)(F)F", "note": "[Example 49, 3-((6aR,7S,10R)-1-fluoro-13-((1-(fluoromethyl)-2-oxabicyclo[2.1.1]hexan-4-yl)methoxy)-5,6,6a,7,8,9,10,11-octahydro-4-oxa-3,11a,12,14,15-pentaaza-7,10-methanocyclohepta[4,5]cyclo-octa[1,2,3-de]naphthalen-2-yl)-5-methyl-4-(trifluoromethyl)aniline]", "IC50": 172}
{"smiles": "Nc1cc(Cl)c(C(F)(F)F)c(-c2nc3c4c(nc(OCC56CCC(COC5)C6)nc4c2F)N2C[C@H]4CC[C@H](N4)[C@H]2CCO3)c1", "note": "[Example 45, 3-((6aR,7S,10R)-13-((3-oxabicyclo[3.2.1]octan-1-yl)methoxy)-1-fluoro-5,6,6a,7,8,9,10,11-octahydro-4-oxa-3,11a,12,14,15-pentaaza-7,10-methanocyclohepta[4,5]cyclo-octa[1,2,3-de]naphthalen-2-yl)-5-chloro-4-(trifluoromethyl)aniline]", "IC50": 221}
{"smiles": "COCC12CC(COc3nc4c5c(nc(-c6cc(N)cc(Cl)c6C(F)(F)F)c(F)c5n3)OCC[C@@H]3[C@@H]5CC[C@H](CN43)N5)(CO1)C2", "note": "[Example 39, 3-chloro-5-((6aR,7S,10R)-1-fluoro-13-((1-(methoxymethyl)-2-oxabicyclo[2.1.1]hexan-4-yl)methoxy)-5,6,6a,7,8,9,10,11-octahydro-4-oxa-3,11a,12,14,15-pentaaza-7,10-methanocyclohepta[4,5]cyclo-octa[1,2,3-de]naphthalen-2-yl)-4-(trifluoromethyl)aniline]", "IC50": 409}
{"smiles": "Oc1cc(Cl)c(C2CC2)c(-c2nc3c4c(nc(OCC56COC(C5)C6)nc4c2F)N2C[C@H]4CC[C@H](N4)[C@H]2CCO3)c1", "note": "[Example 38, 3-((6aR,7S,10R)-13-((2-oxabicyclo[2.1.1]hexan-4-yl)methoxy)-1-fluoro-5,6,6a,7,8,9,10,11-octahydro-4-oxa-3,11a,12,14,15-pentaaza-7,10-methanocyclohepta[4,5]cyclo-octa[1,2,3-de]naphthalen-2-yl)-5-chloro-4-cyclopropylphenol]", "IC50": 1870}
{"smiles": "Cc1nc(N)cc(-c2nc3c4c(nc(OCC56COC(C5)C6)nc4c2F)N2CC4CCC(N4)[C@H]2CCO3)c1C(F)(F)F", "note": "(stereo in doubt) [Example 42, 4-((6aR,7R,10S)-13-((2-oxabicyclo[2.1.1]hexan-4-yl)methoxy)-1-fluoro-5,6,6a,7,8,9,10,11-octahydro-4-oxa-3,11a,12,14,15-pentaaza-7,10-methanocyclohepta[4,5]cyclo-octa[1,2,3-de]naphthalen-2-yl)-6-methyl-5-(trifluoromethyl)pyridin-2-amine]", "IC50": 1850}
{"smiles": "C#Cc1c(F)ccc2cc(O)cc(-c3nc4c5c(nc(OC[C@@]67CCCN6C[C@H](F)C7)nc5c3F)N3CC5CCC(N5)C3CO4)c12", "note": "(stereo partly drawn) [Example 11, 5-ethynyl-6-fluoro-4-(1-fluoro-12-(((2R,7aS)-2-fluorotetrahydro-1H-pyrrolizin-7a(5H)-yl)methoxy)-5a,6,7,8,9,10-hexahydro-5H-4-oxa-3,10a,11,13,14-pentaaza-6,9-methanonaphtho[1,8-ab]heptalen-2-yl)naphthalen-2-ol]", "IC50": 30}
{"smiles": "COC(=O)N1CC(C)(COc2nc3c4c(nc(-c5cc(N)cc(C)c5C(F)(F)F)c(F)c4n2)OCC[C@@H]2[C@@H]4CC[C@H](CN32)N4)C1", "note": "[Example 43, methyl 3-((((6aR,7S,10R)-2-(5-amino-3-methyl-2-(trifluoromethyl)phenyl)-1-fluoro-5,6,6a,7,8,9,10,11-octahydro-4-oxa-3,11a,12,14,15-pentaaza-7,10-methanocyclohepta[4,5]cyclo-octa[1,2,3-de]naphthalen-13-yl)oxy)methyl)-3-methylazetidine-1-carboxylate]", "IC50": 584}
{"smiles": "Nc1cc(Cl)c(C(F)(F)F)c(-c2nc3c4c(nc(OCC5(C(F)F)CCOC5)nc4c2F)N2C[C@H]4CC[C@H](N4)[C@H]2CCO3)c1", "note": "(stereo partly drawn) [Example 63, 3-chloro-5-((6aR,7S,10R)-13-((3-(difluoromethyl)tetrahydrofuran-3-yl)methoxy)-1-fluoro-5,6,6a,7,8,9,10,11-octahydro-4-oxa-3,11a,12,14,15-pentaaza-7,10-methanocyclohepta[4,5]cyclo-octa[1,2,3-de]naphthalen-2-yl)-4-(trifluoromethyl)aniline]", "IC50": 151}
{"smiles": "CCc1cc(N)cc(-c2nc3c4c(nc(OCC56COC(C5)C6)nc4c2F)N2C[C@H]4CC[C@H](N4)[C@H]2CCO3)c1C(F)(F)F", "note": "[Example 68, 3-((6aR,7S,10R)-13-((2-oxabicyclo[2.1.1]hexan-4-yl)methoxy)-1-fluoro-5,6,6a,7,8,9,10,11-octahydro-4-oxa-3,11a,12,14,15-pentaaza-7,10-methanocyclohepta[4,5]cycloocta[1,2,3-de]naphthalen-2-yl)-5-ethyl-4-(trifluoromethyl)aniline]", "IC50": 548}
{"smiles": "CN1C(=O)OC2(C)CC1(COc1nc3c4c(nc(-c5cc(N)cc(Cl)c5C(F)(F)F)c(F)c4n1)OCC[C@@H]1[C@@H]4CC[C@H](CN31)N4)C2", "note": "[Example 47, 5-((((6aR,7S,10R)-2-(5-amino-3-chloro-2-(trifluoromethyl)phenyl)-1-fluoro-5,6,6a,7,8,9,10,11-octahydro-4-oxa-3,11a,12,14,15-pentaaza-7,10-methanocyclohepta[4,5]cyclo-octa[1,2,3-de]naphthalen-13-yl)oxy)methyl)-1,4-dimethyl-2-oxa-4-azabicyclo[3.1.1]heptan-3-one]", "IC50": 1930}
{"smiles": "Nc1cc(Cl)c(C(F)(F)F)c(-c2nc3c4c(nc(OCC56COCC(F)(C5)C6)nc4c2F)N2C[C@H]4CC[C@H](N4)[C@H]2CCO3)c1", "note": "[Example 37, 3-chloro-5-((6aR,7S,10R)-1-fluoro-13-((5-fluoro-3-oxabicyclo[3.1.1]heptan-1-yl)methoxy)-5,6,6a,7,8,9,10,11-octahydro-4-oxa-3,11a,12,14,15-pentaaza-7,10-methanocyclohepta[4,5]cyclo-octa[1,2,3-de]naphthalen-2-yl)-4-(trifluoromethyl)aniline]", "IC50": 97}
{"smiles": "Nc1cc(Cl)c(C(F)(F)F)c(-c2nc3c4c(nc(OCC56COCC(C5)C6)nc4c2F)N2C[C@H]4CC[C@H](N4)[C@H]2CCO3)c1", "note": "[Example 67, 3-((6aR,7S,10R)-13-((3-oxabicyclo[3.1.1]heptan-1-yl)methoxy)-1-fluoro-5,6,6a,7,8,9,10,11-octahydro-4-oxa-3,11a,12,14,15-pentaaza-7,10-methanocyclohepta[4,5]cyclo-octa[1,2,3-de]naphthalen-2-yl)-5-chloro-4-(trifluoromethyl)aniline]", "IC50": 169}
